Laboratory results from patent US10947227B2, “Tricyclic heterocyclic compounds as sting activators” (Incyte Corporation, priority 2018, dated 2021).

System: IRF3 activation in THP-1 Dual Cells
Assay: IRF3 activation assay in THP-1 Dual Cells (QUANTI-Blue readout)
Format: cell-based
Conditions: Homo sapiens, THP1-Dual, 24 h
Procedure: THP-1 Dual Cells (Invivogen) were maintained in RPMI1640 medium with addition of 10% FBS, 100 μg/ml zeocin, 10 μg/ml blasticidin. Cells were added in a 96-well flat bottom assay plate at 100,000 per well in 100 μL complete RPMI medium. Test compounds were prepared by serial dilution in complete RPMI medium and 100 μL test compounds were transferred to each corresponding well. The assay plate was incubated at 37° C., 5% CO2 for 24 hours. After the overnight incubation, 20 μL of the culture supernatants were collected, followed by addition of 180 μL of QUANTI-Blue (Invivogen) to assess IRF3 activity. The amount of IRF3 activation was assessed by reading the absorbance at 620-655 nm with a microplate reader 2 hours later. The culture supernatant from the untreated THP-1 cells was used as the negative control. To determine the NF-κB activation, another 20 μL of culture supernatant were transferred to a 96-well white plate, followed by addition of 50 μL of Quanti-Luc™ assay solution (Invivogen). The amount of NF-κB activation induced by the test compounds were determined by the luminescence above the untreated control. EC50 determination was performed by fitting the curve of percent control activity versus the log of the compound concentration using the GraphPad Prism 6.0 software.

SMILES | EC50 (Table 1, 24 hours incubation) [nM] | EC50 (Table 2, 24 hours incubation) [nM]
CCn1nc(C)cc1C(=O)Nc1nc2cc(C(N)=O)cc(OCCCO)c2n1C/C=C/Cn1c2nc(-c3cc(C)nn3CC)ncc2c2cc(C(N)=O)cc(OCCCOC(=O)NCCC(=O)O)c21 [Example 57, (E)-3-((3-(6-carbamoyl-9-(4-(5-carbamoyl-2-(1-ethyl-3-methyl-1H-pyrazole-5-carboxamido)-7-(3-hydroxypropoxy)-1H-benzo[d]imidazol-1-yl)but-2-enyl)-2-(1-ethyl-3-methyl-1H-pyrazol-5-yl)-9H-pyrimido[4,5-b]indol-8-yloxy)propoxy)carbonylamino)propanoic Acid] |  | 50 to 200
CCn1nc(C)cc1C(=O)Nc1nc2cc(C(N)=O)cc(C)c2n1C/C=C/Cn1c2ccc(C(N)=O)cc2c2cnc(-c3cc(C)nn3C)nc21 [Example 3, (E)-9-(4-(5-carbamoyl-2-(1-ethyl-3-methyl-1H-pyrazole-5-carboxamido)-7-methyl-1H-benzo[d]imidazol-1-yl)but-2-enyl)-2-(1,3-dimethyl-1H-pyrazol-5-yl)-9H-pyrimido[4,5-b]indole-6-carboxamide] | < 1000 | 
CCn1nc(C)cc1C(=O)Nc1nc2cc(C(N)=O)cc(OCCCN)c2n1C/C=C/Cn1c2nc(-c3cc(C)nn3CC)ncc2c2cc(C(N)=O)cc(OCCCOC)c21 [Example 33, (E)-9-(4-(7-(3-aminopropoxy)-5-carbamoyl-2-(1-ethyl-3-methyl-1H-pyrazole-5-carboxamido)-1H-benzo[d]imidazol-1-yl)but-2-en-1-yl)-2-(1-ethyl-3-methyl-1H-pyrazol-5-yl)-8-(3-methoxypropoxy)-9H-pyrimido[4,5-b]indole-6-carboxamide] |  | 500 to 1000
CCc1nn(C)cc1-c1ncc2c3cc(C(N)=O)ccc3n(C/C=C/Cn3c(NC(=O)c4cc(C)nn4CC)nc4cc(C(N)=O)cc(C)c43)c2n1 [Example 8, (E)-9-(4-(5-carbamoyl-2-(1-ethyl-3-methyl-1H-pyrazole-5-carboxamido)-7-methyl-1H-benzo[d]imidazol-1-yl)but-2-enyl)-2-(3-ethyl-1-methyl-1H-pyrazol-4-yl)-9H-pyrimido[4,5-b]indole-6-carboxamide] | < 1000 | 500 to 1000
CCn1nc(C)cc1C(=O)Nc1nc2cc(C(N)=O)cc(OCCN3CCOCC3)c2n1C/C=C/Cn1c2nc(-c3cc(C)nn3CC)ncc2c2cc(C(N)=O)cc(OCCCOC)c21 [Example 38, (E)-9-(4-(5-carbamoyl-2-(1-ethyl-3-methyl-1H-pyrazole-5-carboxamido)-7-(2-morpholinoethoxy)-1H-benzo[d]imidazol-1-yl)but-2-en-1-yl)-2-(1-ethyl-3-methyl-1H-pyrazol-5-yl)-8-(3-methoxypropoxy)-9H-pyrimido[4,5-b]indole-6-carboxamide] |  | 50 to 200
CCn1nc(C)cc1C(=O)Nc1nc2cc(C(N)=O)cc(C)c2n1C/C=C/Cn1c2ccc(C(N)=O)cc2c2cnc(-c3cc(C(F)(F)F)nn3CC)nc21 [Example 9, (E)-9-(4-(5-carbamoyl-2-(1-ethyl-3-methyl-1H-pyrazole-5-carboxamido)-7-methyl-1H-benzo[d]imidazol-1-yl)but-2-enyl)-2-(1-ethyl-3-(trifluoromethyl)-1H-pyrazol-5-yl)-9H-pyrimido[4,5-b]indole-6-carboxamide] | < 1000 | 200 to 500
CCn1nc(C)cc1C(=O)Nc1nc2cc(C(N)=O)cc(OCCCNC(=O)OCC(=O)O)c2n1C/C=C/Cn1c2nc(-c3cc(C)nn3CC)ncc2c2cc(C(N)=O)cc(OCCCOC)c21 [Example 40, (E)-2-(((3-((5-carbamoyl-1-(4-(6-carbamoyl-2-(1-ethyl-3-methyl-1H-pyrazol-5-yl)-8-(3-methoxypropoxy)-9H-pyrimido[4,5-b]indol-9-yl)but-2-en-1-yl)-2-(1-ethyl-3-methyl-1H-pyrazole-5-carboxamido)-1H-benzo[d]imidazol-7-yl)oxy)propyl)carbamoyl)oxy)acetic Acid] |  | < 50
CCn1nc(C)cc1C(=O)Nc1nc2cc(C(N)=O)cc(OCCCOC)c2n1C/C=C/Cn1c2nc(-c3cc(C)nn3CC)ncc2c2cc(C(N)=O)cc(OCCCNC(=O)CCCC(=O)O)c21 [Example 50, (E)-5-(3-(6-carbamoyl-9-(4-(5-carbamoyl-2-(1-ethyl-3-methyl-1H-pyrazole-5-carboxamido)-7-(3-methoxypropoxy)-1H-benzo[d]imidazol-1-yl)but-2-enyl)-2-(1-ethyl-3-methyl-1H-pyrazol-5-yl)-9H-pyrimido[4,5-b]indol-8-yloxy)propylamino)-5-oxopentanoic Acid] |  | < 50

Now from value to compound:

EC50 (Table 1, 24 hours incubation) [nM] | EC50 (Table 2, 24 hours incubation) [nM] | SMILES
< 200 | < 50 | CCn1nc(C)cc1C(=O)Nc1nc2cc(C(N)=O)cc(OCCCOC(=O)c3cc(C)nn3CC)c2n1C/C=C/Cn1c2nc(-c3cc(C)nn3CC)ncc2c2cc(C(N)=O)cc(OCCCOC)c21 [Example 21, (E)-3-((5-carbamoyl-1-(4-(6-carbamoyl-2-(1-ethyl-3-methyl-1H-pyrazol-5-yl)-8-(3-methoxypropoxy)-9H-pyrimido[4,5-b]indol-9-yl)but-2-en-1-yl)-2-(1-ethyl-3-methyl-1H-pyrazole-5-carboxamido)-1H-benzo[d]imidazol-7-yl)oxy)propyl 1-ethyl-3-methyl-1H-pyrazole-5-carboxylate]
< 200 | < 50 | CCn1nc(C)cc1C(=O)Nc1nc2cc(C(N)=O)cc(OCCCO)c2n1C/C=C/Cn1c2nc(-c3cc(C)nn3CC)ncc2c2cc(C(N)=O)cc(OCCCN3CCOCC3)c21 [Example 20, (E)-9-(4-(5-carbamoyl-2-(1-ethyl-3-methyl-1H-pyrazole-5-carboxamido)-7-(3-hydroxypropoxy)-1H-benzo[d]imidazol-1-yl)but-2-en-1-yl)-2-(1-ethyl-3-methyl-1H-pyrazol-5-yl)-8-(3-morpholinopropoxy)-9H-pyrimido[4,5-b]indole-6-arboxamide]
< 200 | < 50 | CCn1nc(C)cc1C(=O)Nc1nc2cc(C(N)=O)cc(C)c2n1C/C=C/Cn1c2nc(-c3cc(C)nn3CC)ncc2c2cc(C(N)=O)cc(OCCCN3CCOCC3)c21 [Example 11, (E)-9-(4-(5-carbamoyl-2-(1-ethyl-3-methyl-1H-pyrazole-5-carboxamido)-7-methyl-1H-benzo[d]imidazol-1-yl)but-2-enyl)-2-(1-ethyl-3-methyl-1H-pyrazol-5-yl)-8-(3-morpholinopropoxy)-9H-pyrimido[4,5-b]indole-6-carboxamide]
< 200 | < 50 | CCn1nc(C)cc1C(=O)Nc1nc2cc(C(N)=O)cc(OCCCO)c2n1C/C=C/Cn1c2ccc(C(N)=O)cc2c2cnc(-c3cc(C)nn3CC)nc21 [Example 18, (E)-9-(4-(5-carbamoyl-2-(1-ethyl-3-methyl-1H-pyrazole-5-carboxamido)-7-(3-hydroxypropoxy)-1H-benzo[d]imidazol-1-yl)but-2-en-1-yl)-2-(1-ethyl-3-methyl-1H-pyrazol-5-yl)-9H-pyrimido[4,5-b]indole-6-carboxamide]
 | < 50 | CCn1nc(C)cc1C(=O)Nc1nc2cc(C(N)=O)cc(OCCCNC(=O)NCC(=O)O)c2n1C/C=C/Cn1c2nc(-c3cc(C)nn3CC)ncc2c2cc(C(N)=O)cc(OCCCOC)c21 [Example 41, (E)-((3-((5-carbamoyl-1-(4-(6-carbamoyl-2-(1-ethyl-3-methyl-1H-pyrazol-5-yl)-8-(3-methoxypropoxy)-9H-pyrimido[4,5-b]indol-9-yl)but-2-en-1-yl)-2-(1-ethyl-3-methyl-1H-pyrazole-5-carboxamido)-1H-benzo[d]imidazol-7-yl)oxy)propyl)carbamoyl)glycine]
